Data from paper PMC7369900 (International Journal of Molecular Sciences, 2020).
Converted amounts (≈) assume the structure as drawn.

What was measured:
[1] = target: T1, yeast DNA topoisomerase II (Saccharomyces cerevisiae, UniProt P06786); experiment: biochemical; format: biochemical; settings: 500 µM
T1 construct: purchased Inspiralis (Norwich, UK)

[2] = system: P. aeruginosa ATCC 27853; experiment: microbe, parasite or virus in culture; format: cell-based, Pseudomonas aeruginosa; settings: Pseudomonas aeruginosa, ATCC27853; P. aeruginosa ATCC 27853, MHB
Procedure: (§1) The antibacterial activity of TP10-NH2-based conjugates, as well as its constituents, was evaluated by microdilution assay in Mueller Hinton broth, MHB (Table 1). […] There are, however, some exceptions. […] Its activity against two other tested bacteria was somewhat lower though.
(§2) The antibacterial activity (bacteriostatic: MIC and bactericidal: MBC) of the tested compounds was determined in MHB (Mueller Hinton Broth, Sigma Aldrich, St. Louis, MO, USA) using a serial two-fold dilution method in 96-well microtiter plates according to CLSI recommendations, described in M07-A10 document. The exact conditions have been described previously. All experiments were performed in three replicates. The MIC90 and MIC50 values were defined as the concentrations of compounds tested that caused a 90% or 50% reduction of growth, respectively, comparing to the drug-free control.

[3] = system: E. coli ATCC 25,922; experiment: Resistance induction by serial passage on MHA plates; format: cell-based, Escherichia coli; settings: passaged with CIP 0.012 μM or 3 0.012 μM
[4] = system: S. aureus ATCC 29,213; experiment: as above; format: cell-based, Staphylococcus aureus; settings: passaged with CIP 0.1875 μM or 3 0.375 μM
[5] = system: S. aureus ATCC 29213; experiment: microbe, parasite or virus in culture; format: cell-based, Staphylococcus aureus; settings: Staphylococcus aureus, ATCC29213; S. aureus ATCC 29213, MHB
Procedure: as §1, §2

[6] = system: HL-60; experiment: ROS generation (CM-H2DCFDA, flow cytometry); format: cell-based, human; settings: human, 100 µM
Procedure: (§3) In the positive controls treated with H2O2, the fraction of ROS-positive cells exceeded 75%. […] Strikingly, in HL-60, a biologically significant effect was observed almost immediately (after 15 min of incubation). The same was noted after 1 h in the HEK 293 cell line. […] Similarly, conjugates 4 and 5 generated ROS at the low level (less than 15% for HL-60 and less than 20% for HEK 293) (manuscript in preparation). […] For HL-60, the critical level of ROS was noted after 15 min of incubation.
(§4) ROS generation activity was evaluated as described previously. Briefly, HEK 293 cells were seeded on 35-mm Petri dishes in the amount of 15,000 cells per plate for 24 h in DMEM medium. […] Positive controls contained 250 µM H2O2, while negative controls were without any additions. After 0.5, 2.5, 5.5, and 24 h of incubation at 37 °C, the CM-H2DCFDA molecular probe (Thermo Fischer Scientific, Waltham, USA) was added to the plates and incubation was continued for another 0.5 h. The HEK 293 cells were detached with 0.05% trypsin solution in PBS and HBSS (Hank’s Balanced Salt Solution) and suspended in fresh DMEM medium. All samples were additionally stained with 7-AAD (7-aminoactinomycin D, 0.8 µg/mL) and immediately analysed with a Guava easyCyte flow cytometer (Merc, Burlington, USA). The determinations were performed in triplicates.

[7] = system: HEK 293; experiment: ROS generation (CM-H2DCFDA, flow cytometry); format: cell-based, human; settings: human, 500 µM
Procedure: as §3, §4

[8] = system: human red blood cells; experiment: Hemolysis assay
[9] = system: S. epidermidis ATCC 12228; experiment: microbe, parasite or virus in culture; format: cell-based, Staphylococcus epidermidis; settings: Staphylococcus epidermidis, ATCC12228; S. epidermidis ATCC 12228, MHB
Procedure: as §1, §2

[10] = system: Hep G2; experiment: cells; format: cell-based, human; settings: Homo sapiens, HepG2; Hep G2, 72 h, MTT
Procedure: (§5) Among the conjugates, LVXC-S-S-CTP10-NH2 (5) was the least cytotoxic. […] In the case of HEK 293 and LLC-PK1 cells, the IC50 values of 5 were nearly four times higher. […] Additionally, we noted that the cancer cells Hep G2 were less sensitive to the action of the given compounds than the non-cancer cells (HEK 293 and LLC-PK1).
(§6) Cytotoxicity was assessed against three mammalian cell lines: LLC-PK1, Hep G2, and HEK 293. Multiwell (96–well) plates were seeded at 7000 cells/well in Medium 199 supplemented with 7.5% FBS, MEM Eagle’s medium supplemented with 10% FBS, or DMEM medium supplemented with 10% FBS, respectively. All media were supplemented with L-glutamine and antibiotics (penicillin/streptomycin). Cells were allowed to attach overnight. Drugs were dissolved in cell culture medium and added to wells in 100-µL aliquots of 2× concentrated solutions, in triplicates. To control wells, 100 µL of the medium were added. Cells were incubated with the studied compounds for 72 h at 37 °C and 95%/5% or 90%/10% (HEK 293 cells) CO2 atmosphere. Then, 20-µL aliquots of MTT solution in PBS (4 mg/mL) were added to all wells and plates were incubated further for 3 h in 37 °C. Formazan crystals formed were dissolved in 100 µL of DMSO and the absorbance of the solutions was measured using a multiwell plate reader (Spark, Tecan, Männedorf, Switzerland) at λ = 540 nm. Cytotoxicity was determined compared to the drug-free control. All experiments were performed in triplicates.

[11] = system: HEK 293; experiment: cells; format: cell-based, human; settings: Homo sapiens, HEK293; HEK 293, 72 h, MTT
Procedure: as §5, §6

[12] = system: E. coli ATCC 25922; experiment: microbe, parasite or virus in culture; format: cell-based, Escherichia coli; settings: Escherichia coli, ATCC25922; E. coli ATCC 25922, MHB
Procedure: as §1, §2

[13] = system: Gram-positive and Gram-negative bacteria; format: cell-based; settings: MHB, four bacteria
Procedure: as §1, §2

[14] = system: LLC-PK1; experiment: cells; format: cell-based, pig; settings: Sus scrofa; LLC-PK1, 72 h, MTT
Procedure: as §5, §6

[15] = system: C. krusei DSM 6128; experiment: microbe, parasite or virus in culture; settings: Pichia kudriavzevii, DSM6128
[16] = system: C. glabrata DSM 11226; experiment: microbe, parasite or virus in culture; settings: Nakaseomyces glabratus, DSM11226
[17] = system: yeasts of the Candida genus; experiment: microbe, parasite or virus in culture; settings: read-out: MIC against Candida strains

T1 sequence (P06786 whole entry): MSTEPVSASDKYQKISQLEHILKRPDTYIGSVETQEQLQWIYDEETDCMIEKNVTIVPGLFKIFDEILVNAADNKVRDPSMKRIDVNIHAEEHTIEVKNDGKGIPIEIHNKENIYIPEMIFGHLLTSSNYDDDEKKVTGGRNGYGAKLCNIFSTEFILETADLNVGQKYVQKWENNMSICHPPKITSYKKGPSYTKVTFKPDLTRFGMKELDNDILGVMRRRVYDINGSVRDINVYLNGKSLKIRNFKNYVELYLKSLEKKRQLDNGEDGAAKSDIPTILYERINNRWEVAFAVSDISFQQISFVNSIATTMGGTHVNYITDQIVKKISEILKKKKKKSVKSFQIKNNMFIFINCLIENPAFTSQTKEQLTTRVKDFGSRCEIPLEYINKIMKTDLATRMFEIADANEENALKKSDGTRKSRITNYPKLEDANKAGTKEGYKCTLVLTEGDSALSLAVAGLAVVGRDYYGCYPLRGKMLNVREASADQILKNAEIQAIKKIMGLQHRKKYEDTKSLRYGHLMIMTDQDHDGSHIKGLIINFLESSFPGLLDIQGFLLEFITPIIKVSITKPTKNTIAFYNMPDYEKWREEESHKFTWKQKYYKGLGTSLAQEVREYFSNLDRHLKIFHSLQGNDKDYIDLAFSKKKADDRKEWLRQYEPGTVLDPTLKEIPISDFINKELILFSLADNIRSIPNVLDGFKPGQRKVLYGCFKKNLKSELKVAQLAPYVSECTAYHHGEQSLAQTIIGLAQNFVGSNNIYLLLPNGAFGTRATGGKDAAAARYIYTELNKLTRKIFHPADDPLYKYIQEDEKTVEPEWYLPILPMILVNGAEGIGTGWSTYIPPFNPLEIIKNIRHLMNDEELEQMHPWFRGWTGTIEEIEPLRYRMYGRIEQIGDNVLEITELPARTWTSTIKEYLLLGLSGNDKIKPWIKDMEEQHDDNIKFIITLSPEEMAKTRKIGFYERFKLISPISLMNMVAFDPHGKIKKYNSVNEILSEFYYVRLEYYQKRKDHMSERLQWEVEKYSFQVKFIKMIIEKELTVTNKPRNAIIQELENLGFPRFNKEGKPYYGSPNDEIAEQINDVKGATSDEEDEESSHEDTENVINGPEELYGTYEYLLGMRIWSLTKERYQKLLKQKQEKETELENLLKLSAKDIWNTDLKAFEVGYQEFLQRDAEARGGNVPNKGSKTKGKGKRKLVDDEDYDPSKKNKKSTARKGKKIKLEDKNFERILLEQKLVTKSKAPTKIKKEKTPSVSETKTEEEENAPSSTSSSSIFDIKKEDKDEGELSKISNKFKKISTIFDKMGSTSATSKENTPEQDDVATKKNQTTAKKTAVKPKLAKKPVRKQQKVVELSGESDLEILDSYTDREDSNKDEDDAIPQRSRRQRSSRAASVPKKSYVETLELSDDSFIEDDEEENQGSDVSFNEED

| Structure (SMILES) | Topoisomerase II inhibition at the highest used concentration [1] | MIC50 [2] [µM] | MIC90 [2] [µM] | MIC50 [5] [µM] | MIC90 [5] [µM] | Hemolytic effect [8] | MIC50 [9] [µM] | MIC90 [9] [µM] | IC50 [10] [µM] | IC50 [11] [µM] | MIC50 [12] [µM] | MIC90 [12] [µM] | MIC50 range over tested bacteria [13] [µM] | MIC90, upper end of range over tested bacteria [13] [µM] | IC50 [14] [µM] | other results |
| --- | --- | --- | --- | --- | --- | --- | --- | --- | --- | --- | --- | --- | --- | --- | --- | --- |
| O=C(O)c1cn(C2CC2)c2cc(N3CCNCC3)c(F)cc2c1=O [CIP, ciprofloxacin] | residual activity | 0.4 (≈ 0.133 µg/mL) | 0.4 (≈ 0.133 µg/mL) | 0.2 (≈ 0.0663 µg/mL) | 0.2 (≈ 0.0663 µg/mL) | do not cause a hemolytic effect | 0.8 (≈ 0.265 µg/mL) | 1.6 (≈ 0.53 µg/mL) | > 200 | > 200 | < 0.0125 | 0.0125 (≈ 0.00414 µg/mL) | 0.0125 to 0.8 | ≤ 1.6 | > 200 | Increase of MIC after the 5th passage [3]: 8 fold; Increase of MIC after the 10th passage [3]: 8 fold; Increase of MIC compared to the control after passaging [4]: 2 fold; Incubation time at which significant/critical ROS level was noted [6]: 15 min; Dot plot quadrant LB ([6]; 3 h): 96.2 ± 2.6; Dot plot quadrant LT ([6]; 3 h): 1.1 ± 1.5; Dot plot quadrant RB ([6]; 3 h): 2.6 ± 1.6; Dot plot quadrant RT ([6]; 3 h): 0.7 ± 0.7; Dot plot quadrant LB ([6]; 6 h): 97.5 ± 1.2; Dot plot quadrant LT ([6]; 6 h): 0.4 ± 0.3; Dot plot quadrant RB ([6]; 6 h): 2.1 ± 1.3; Dot plot quadrant RT ([6]; 6 h): 0.0 ± 0.0; Dot plot quadrant LB ([6]; 24 h): 99.7 ± 0.2; Dot plot quadrant LT ([6]; 24 h): 0.1 ± 0.1; Dot plot quadrant RB ([6]; 24 h): 0.2 ± 0.1; Dot plot quadrant RT ([6]; 24 h): 0.0 ± 0.0; Incubation time at which significant ROS effect was noted [7]: 1 h |
| C[C@H]1COc2c(N3CCN(C)CC3)c(F)cc3c(=O)c(C(=O)O)cn1c23 [LVX, levofloxacin, reference compound] | residual activity | 0.8 (≈ 0.289 µg/mL) | 0.8 (≈ 0.289 µg/mL) | 0.4 (≈ 0.145 µg/mL) | 0.4 (≈ 0.145 µg/mL) | do not cause a hemolytic effect | 0.8 (≈ 0.289 µg/mL) | 1.6 (≈ 0.578 µg/mL) | > 200 | > 200 | 0.025 (≈ 0.00903 µg/mL) | 0.025 (≈ 0.00903 µg/mL) | 0.0125 to 0.8 | ≤ 1.6 | > 200 | MIC50 [15]: > 200 µM; MIC50 [16]: > 200 µM; MIC [17]: > 200 µM |
